The values below come from patent US20020146823A1, “Method for promoting hematopoietic and mesenchymal cell proliferation and differentiation” (The University of Southern California, priority 1997, published 2002).

Entries after “also recorded” stand apart in the source; their conditions may differ. No end group written: not given here.

Experiment [1] can be described thus: Tests of effectiveness of AII fragments (test not specified). From the text:
Particularly preferred embodiments of this class include the following: AII, AIII or AII(2-8), […] [SEQ ID NO:2]; […] AII(1-7), […] {SEQ ID NO:4]; AII(2-7). […] [SEQ ID NO:5]; AII(3-7), […] [SEQ ID NO:6]; AII(5-8), […] [SEQ ID NO:7]; AII(1-6), […] [SEQ ID NO:8]; AII(1-5), […] [SEQ ID NO:9]; AII(1-4), […] [SEQ ID NO:10]; and AII(1-3), […] [SEQ ID NO:11]. Other preferred embodiments include: […] [SEQ ID NO:12] and […] [SEQ ID NO:13]. Still another preferred embodiment encompassed within the scope of the invention is a peptide having the sequence […] [SEQ ID NO:31]. AII(6-8), […] [SEQ ID NO:14] and AII(4-8), […] Particularly preferred is angiotensin III of the formula […] [SEQ ID NO:2]. Other preferred compounds include peptides having the structures […] [SEQ ID NO:17] and […] [SEQ ID NO:18].

Experiment [2] deals with Rat Peritoneal Macrophages. In words: Phagocytic capability of rat peritoneal macrophages (opsonized yeast ingestion). The class given is cell-based, Sprague Dawley rats. How it is done: Resident peritoneal macrophages have very little phagocytic activity. Exposure of macrophages to inflammatory or activating agents will increase this macrophage function. Resident peritoneal macrophages were harvested from C57B1/6 mice or Sprague Dawley rats and resuspended at a concentration of 1×10^6 cells/ml in phosphate buffered saline (PBS). Five separate 0.5 ml cell aliquots were placed on a glass coverslip in a 35 mm petri dish. Prior to incubation, either 0.5 ml of PBS, AII, or AII analogues or fragments at between 1-1000 ug/ml final concentration was added to the individual cover slips. The dishes containing the cover slips were then incubated at 37° C. for 4 hours, after which the cover slips were washed 3 to 6 times with PBS. Opsonized yeast particles (Sigma Chemical Co.) (yeast opsonized with adult serum from the same species as that under study) were added to the cover slips and incubated for 2 hours, after which the cover slips were again washed with PBS and inverted onto a glass slide. The number of macrophages that ingested yeast and the number of yeast per macrophage ingested was then determined microscopically. At least 100 macrophages per coverslip were counted. The data from this study are summarized in Tables 3 and 4 and FIGS. 1 and 2.

For experiment [3], the system named is human peripheral blood mononuclear cells (PBMC). In words: Respiratory burst (hydrogen peroxide generation) in human PBMC. Particulars: PBMC; presence and absence of PMA. The class given is cell-based. How it is done:
The respiratory burst of leukocytes (macrophages and polymorphonuclear neutrophils) is one component of the mediator system used to kill bacteria. As with phagocytosis, the level of this respiratory burst activity in resident macrophages is low. […] Studies were conducted to assess the effect of in vitro exposure of murine or rat peritoneal macrophages and human peripheral blood mononuclear cells (PBMC) to various concentrations of AII on the capacity to generate hydrogen peroxide via the respiratory burst system. For the human studies, five different donors were examined.
The murine or rat peritoneal cells were harvested by lavage with 5-15 ml of cold PBS with 0.5% bovine serum albumin. The human PBMC were harvested by venipuncture from normal human volunteers and isolated from peripheral blood by Ficoll Hypaque density centrifugation. After isolation, the cells were resuspended at 1×10^6 cells/ml and placed at 100 μl per well into 96 well plates. The cells were incubated with various concentrations of AII or AII analogues and fragments for 4 hours at 37° C. The cells were then preloaded with a fluorescent probe for hydrogen peroxide, 2,7 dichlorofluorescein acetate, which is nonfluorescent in the absence of hydrogen peroxide. Fifteen minutes later, 10 ng/ml of phorbol myristate acetate (+PMA) or PBS (−PMA) was added to stimulate the production of hydrogen peroxide. One hour after stimulation the level of fluorescence produced was measured on a Cytofluor 2350 multiwell fluorometer.

Regarding His-Pro-Phe [AII(6-8)], the effectiveness result in experiment [1] is listed as “not to be effective”.
Take RVYAHPF [GSD 22A]: the “Number of Macrophages with Yeast (Yeast Number) ≧7” value (“Number … (Yeast Number) ≧7” below) in experiment [2] (peptide 100 μg/ml) stood at 0. In experiment [2] (peptide 1000 μg/ml), the “Number of Macrophages with Yeast (Yeast Number) 0” value (“Number … (Yeast Number) 0” for short) came to 100 and the “Number … (Yeast Number) ≧7” value is on record as 0. For the same substance, the “respiratory burst capacity after pre-exposure to analogues and fragments of AII” value in experiment [3] is “an increase in the respiratory burst capacity was observed”.
As to DRPYIHPF [GSD 24B], in experiment [2] (peptide 100 μg/ml), the “Number … (Yeast Number) ≧7” value came out at 0. Besides, in experiment [2] (peptide 1000 μg/ml), the “Number … (Yeast Number) 0” value is given as 100 and the “Number … (Yeast Number) ≧7” value was 0. Also, the “respiratory burst capacity after pre-exposure to analogues and fragments of AII” value in experiment [3] was “an increase in the respiratory burst capacity was observed”.
With “Asp-Arg-Val-Tyr-Ile-His-Pro-Ile [GSD 28]”, in experiment [2] (peptide 100 μg/ml), the “Number … (Yeast Number) ≧7” value stood at 0. Moreover, in experiment [2] (peptide 1000 μg/ml), the “#/Cell” value is on record as 0.02, the “% w/Yeast” value stood at 1.0%, the “Number … (Yeast Number) 0” value is on record as 100 and the “Number of Macrophages with Yeast (Yeast Number) 1-3” value (“Number … (Yeast Number) 1-3” below) is reported as 1. In addition, in experiment [2] (peptide 1000 μg/ml), the “Number of Macrophages with Yeast (Yeast Number) 4-6” value (shortened to “Number … (Yeast Number) 4-6”) is 0 and the “Number … (Yeast Number) ≧7” value came to 0. Also, the “respiratory burst capacity after pre-exposure to analogues and fragments of AII” value in experiment [3] is given as “an increase in the respiratory burst capacity was observed”.
As for “Tyr-Ile-His-Pro-Phe (YIHPF; printed: Tyr-Ile-His-Pro-Phe) [AII(4-8)]”, the effectiveness result in experiment [1] is listed as “not to be effective; also recorded: ineffective in repeated tests”.
“Asp-Arg-Val-Tyr-Ile-His-Pro (DRVYIHP; printed: Asp-Arg-Val-Tyr-Ile-His-Pro) [AII(1-7)]”: in experiment [2] (peptide 100 μg/ml), the “#/Cell” value is 0.53, the “% w/Yeast” value came to 20.6%, the “Number … (Yeast Number) 0” value came to 100 and the “Number … (Yeast Number) 1-3” value is recorded as 21. In addition, in experiment [2] (peptide 100 μg/ml), the “Number … (Yeast Number) 4-6” value was determined as 5 and the “Number … (Yeast Number) ≧7” value is listed as 0. Moreover, in experiment [2] (peptide 1000 μg/ml), the “#/Cell” value was found to be 0.85, the “% w/Yeast” value was 30.8%, the “Number … (Yeast Number) 0” value is listed as 90 and the “Number … (Yeast Number) 1-3” value was found to be 30. For the same substance, in experiment [2] (peptide 1000 μg/ml), the “Number … (Yeast Number) 4-6” value is recorded as 10 and the “Number … (Yeast Number) ≧7” value was 0. Moreover, in experiment [3], the “respiratory burst capacity after pre-exposure to analogues and fragments of AII” value is on record as “an increase in the respiratory burst capacity was observed”.
